Results: patent EP0203488A2, “7-Azolyl-1-cyclopropyl-1,4-dihydro-4-oxo-3-quinoline carboxylic acids and 1,8-naphthyridine carboxylic acids, process for their preparation and bactericidal agents containing them” (BAYER AG, priority 1985, dated 1986)
Values after ≈ are worked out from the molar mass of the structure shown.

Legend:
Assay in all cases: Agar dilution test (Isosensitest medium), MIC
Assay type in all cases: cell-based
[1] = tested on: E.coli Neum.; details: Escherichia coli, Agardilutionstest / Isosensitestmedium, read-out: MHK-Werte
Excerpt: (§1) In der nachstehenden Tabelle sind die MHK-Werte einiger der erfindungsgemäßen Verbindungen im Vergleich zu Ciprofloxacin angegeben.

[2] = tested on: E.coli T 7; details: Escherichia coli, T7, Agardilutionstest / Isosensitestmedium, read-out: MHK-Werte
Excerpt: as §1

[3] = tested on: Klebsiella pneum. 63; details: Agardilutionstest / Isosensitestmedium, read-out: MHK-Werte
Excerpt: as §1

[4] = tested on: Klebsiella pneum. 8085; details: Agardilutionstest / Isosensitestmedium, read-out: MHK-Werte
Excerpt: as §1

[5] = tested on: Proteus vulg. 1017; details: Agardilutionstest / Isosensitestmedium, read-out: MHK-Werte
Excerpt: as §1

[6] = tested on: Pseudom.aerug.Ellsw.; details: Agardilutionstest / Isosensitestmedium, read-out: MHK-Werte
Excerpt: as §1

[7] = tested on: Staph. aur. 133; details: Agardilutionstest / Isosensitestmedium, read-out: MHK-Werte
Excerpt: as §1

[8] = tested on: Staph. aur. 1756; details: Agardilutionstest / Isosensitestmedium, read-out: MHK-Werte
Excerpt: as §1

[9] = tested on: Staph. aur. FK 422; details: Agardilutionstest / Isosensitestmedium, read-out: MHK-Werte
Excerpt: as §1

[10] = tested on: Streptococcus faec.27101; details: Agardilutionstest / Isosensitestmedium, read-out: MHK-Werte
Excerpt: as §1

SMILES | MIC [1] [µg/mL] | MIC [2] [µg/mL] | MIC [3] [µg/mL] | MIC [4] [µg/mL] | MIC [5] [µg/mL] | MIC [6] [µg/mL] | MIC [7] [µg/mL] | MIC [8] [µg/mL] | MIC [9] [µg/mL] | MIC [10] [µg/mL]
O=C(O)c1cn(C2CC2)c2c(F)c(-n3ccnc3)c(F)cc2c1=O [Beispiel 21, 1-Cyclopropyl-6,8-difluor-1,4-dihydro-7-(1-imidazolyl)-4-oxo-3-chinolincarbonsäure] | 0.03 (≈ 0.0906 µM) | 0.03 (≈ 0.0906 µM) | 0.06 (≈ 0.181 µM) | 0.03 (≈ 0.0906 µM) | 0.125 (≈ 0.377 µM) | 0.25 (≈ 0.755 µM) | 0.125 (≈ 0.377 µM) | 0.125 (≈ 0.377 µM) | 0.125 (≈ 0.377 µM) | 0.5 (≈ 1.51 µM)
CCn1cc(C(=O)O)c(=O)c2cc(F)c(-n3ccnc3)c(F)c21 [EP 115 049, 1-Ethyl-6,8-difluor-1,4-dihydro-7-(1-imidazolyl)-4-oxo-3-chinolincarbonsäure, reference compound] | 0.125 (≈ 0.392 µM) | 0.125 (≈ 0.392 µM) | 0.5 (≈ 1.57 µM) | 0.25 (≈ 0.783 µM) | 0.5 (≈ 1.57 µM) | 1 (≈ 3.13 µM) | 1 (≈ 3.13 µM) | 1 (≈ 3.13 µM) | 0.5 (≈ 1.57 µM) | 2 (≈ 6.26 µM)
O=C(O)c1cn(C2CC2)c2cc(-n3cccc3)c(F)cc2c1=O [Beispiel 1, 1-Cyclopropyl-6-fluor-1,4-dihydro-4-oxo-7-(1-pyrrolyl)-3-chino-lincarbonsäure] | 0.06 (≈ 0.192 µM) | 0.06 (≈ 0.192 µM) | 0.125 (≈ 0.4 µM) | 0.06 (≈ 0.192 µM) | 0.25 (≈ 0.801 µM) | 0.5 (≈ 1.6 µM) | 0.03 (≈ 0.0961 µM) | 0.03 (≈ 0.0961 µM) | 0.03 (≈ 0.0961 µM) | 0.25 (≈ 0.801 µM)
O=C(O)c1cn(C2CC2)c2c(F)c(-n3cccc3)c(F)cc2c1=O [Beispiel 2, 1-Cyclopropyl-6,8-difluor-1,4-dihydro-4-oxo-7-(1-pyrrolyl)-3-chinolincarbon-säure] | 0.25 (≈ 0.757 µM) | 0.125 (≈ 0.378 µM) | 0.5 (≈ 1.51 µM) | 0.125 (≈ 0.378 µM) | 0.5 (≈ 1.51 µM) | 1 (≈ 3.03 µM) | 0.06 (≈ 0.182 µM) | 0.06 (≈ 0.182 µM) | 0.06 (≈ 0.182 µM) | 0.25 (≈ 0.757 µM)
O=C(O)c1cn(C2CC2)c2c(Cl)c(-n3ccnc3)c(F)cc2c1=O [Beispiel 20, 8-Chlor-1-cyclopropyl-6-fluor-1,4-dihydro-7-(1-imidazolyl)-4-oxo-3-chinolincarbonsäure] | 0.03 (≈ 0.0863 µM) | 0.03 (≈ 0.0863 µM) | 0.25 (≈ 0.719 µM) | 0.03 (≈ 0.0863 µM) | 0.25 (≈ 0.719 µM) | 0.5 (≈ 1.44 µM) | 0.03 (≈ 0.0863 µM) | 0.03 (≈ 0.0863 µM) | 0.03 (≈ 0.0863 µM) | 0.125 (≈ 0.359 µM)
